# Assay: Hydrophobicity evaluation of hydrophobic metal phthalocyanine dye by TLC (Rf value)
# Assay type: physicochemical
# Details: TLC glass plate RP-18, methanol containing 1% by weight lithium chloride; value of the dye used
# Method: To compare the hydrophobicities of hydrophobic metal phthalocyanine dyes, evaluation was carried out using a thin-layer liquid chromatography (hereinafter sometimes abbreviated as TLC) method.
# A TLC glass plate, RP-18 (from Merck & Co., Inc.), was used as a development plate, and a methanol solution containing 1% by weight of lithium chloride was used as a development solvent.
# According to an established method, a dye solution was spotted on the starting line and the relative migration distance (hereinafter sometimes abbreviated as Rf value) was calculated based on the following equation. Rf value=the distance from the starting line to the center of the spot of the component/the distance from the starting line to the top of the solvent
row,Substance,Rf Value
1,"Cobalt 2,9,16,23-tetra-tert-butyl-29H,31H-phthalocyanine",0.08
2,"Copper (II) 2,9,16,23-tetra-tert-butyl-29H,31H-phthalocyanine",0.06
3,"Zinc 2,9,16,23-tetra-tert-butyl-29H,31H-phthalocyanine",0.10
4,tert-butyl silicon-[bis trimethylsiloxy]-phthalocyanine,0.12

# Reference: patent publication US20150037255A1, “PHTHALOCYANINE DYE-CONTAINING CONTRAST AGENT FOR PHOTOACOUSTIC IMAGING” (CANON KABUSHIKI KAISHA, priority 2013, published 2015)
